{"source": "patent US12157869B2", "about": "“Methods and compositions for reducing persistent odor in clothing and mitigating biofilms on various materials” (priority 2019, dated 2024)", "key": {"[1]": {"test_system": "persistent odor (perma-odor) in clothing", "assay": "Odor evaluation of treated clothing by smelling (odor level on a scale of 0 to 5)"}, "[2]": {"test_system": "biofilm matter in clothing", "assay": "UV light visualization of fluorescence of suspected biofilm matter in clothing (optical brightener / Calcofluor White)", "description": "Three UV lamps were used in testing fluorescence in potential biofilms. These included a Lightfe® UV301D lamp providing a beam at 365 nm, a UVBeast V3 lamp operating at 395 nm, and a UV Nova 108-LED UV lamp operating at 395 nm.\nIn one approach, biofilm candidates were stained using Calcofluor White M2R dye, a fluorescent brightener purchased from Phyto Technology Laboratories (Shawnee Mission, Kansas), CAS No. 4404-43-7. A solution was prepared of 0.074% Calcofluor white in water, and given the name CF1.\nIn examining fluorescence, it was eventually noted that both an SLR camera and an iPhone camera could not easily capture the fine details of fluorescence when using any of the UV lamps available for this study, probably because the fluorescence, including some background fluorescence, may have interfered with the camera's visible light operations. […] A rubber band was sufficient for holding it in place."}, "[3]": {"test_system": "darkened regions believed to be biofilm remnants in clothing", "assay": "Visible-light inspection of darkened or yellow regions in clothing", "conditions": "shirt CH1; left pit 6 g 2.1% NAC then 1.95 g E3; right pit 2.1 g E3 without NAC; about 20 min, short cycle 30°C Purex", "description": "FIG. 10A depicts the left pit of shirt CH1 in visible light after the treatments described previously (as well as the treatment with optical brighter). A dark region 202 is still present that appears to come from within the fabric rather than resting on its surface. It is believed to come from biofilm material such as polysaccharides, proteins, and genetic material, that is capable of adhering to optical brighteners such as CF1 solution. FIG. 10B depicts the same region in UV light using the UVBeast V3 lamp. The dark region 202 of FIG. 10A is now a fluorescent region 204 with the appearance of a purple color, believed to result from Calcofluor White fluorescence couple with the dark matter's blocking of the fluorescence of the shirt material itself. […] The fluorescence in CH1 was bright enough to be detected even with the orange dye of the shirt brightly fluorescing at the same time."}}, "note": "Where a name gives a salt, the structure may show the parent alone."}
{"smiles": "CC(=O)N[C@@H](CS)C(=O)O", "note": "[NAC, N-acetyl cysteine]", "values": [{"measurement": "odor after one work day, shirt AA left pit", "setting": "[1]; 2.1% NAC and NIC, wash", "result": "remained smelling fresh"}, {"measurement": "odor after one work day, shirt AA right pit", "setting": "[1]; 2.1% NAC, NIC and 2 g E2, wash", "result": "smell again"}, {"measurement": "owner's report after wash and exercise, shirt WL", "setting": "[1]; left pit 4.8 g 2% NAC (pH 7.8), 2 min, 6.5 g NIC, 10 min, 5 g NIC, liquid Tide", "result": "substantial improvement"}, {"measurement": "odor after heavy exercise, shirt RL", "setting": "[1]; right pit 2% NAC pH 7.8 then NIC, left pit NIC only, washed", "result": "strong odor"}, {"measurement": "odor level after washing and exercise, shirt BL right pit", "setting": "[1]; right pit 2.1% NAC, EGCD-2, left pit about 2, scale of 0 to 5", "result": "~1"}, {"measurement": "odor after washing and exercise, shirt WL", "setting": "[1]; right pit 2.1% NAC, EGCD-B, NIC", "result": "very little odor"}, {"measurement": "odor level after washing and exercise, shirt RL", "setting": "[1]; right pit 2.1% NAC, EGCD-B, NIC, both pits about the same, scale of 0 to 5", "result": "about 2"}, {"measurement": "odor following exercise, shirt AB", "setting": "[1]; right pit 8.2 g 2.1% NAC, 3.3 g NIC, 5.4 g LPS1, wash", "result": "smell better in general"}, {"measurement": "residual odor after wash, shirt RL", "setting": "[1]; right pit 9.1 g 2% NAC pH 7.8, 11 min, 5.8 g NIC, left pit 10 g NIC only", "result": "appeared to have been eliminated"}, {"measurement": "odor level after washing and drying", "setting": "[1]; shirt BD1 right pit, 5.2 g 2.1% NAC (pH 4) then 2.9 g E3C, Purex, about 3 before, untreated left pit about 1, scale of 1 to 5", "result": 0}, {"measurement": "odor after handwash and air drying", "setting": "[1]; shirt CH1, right pit 3.2% NAC solution (2 g outside and inside), 2 min, then NIC 4.83 g, left pit NIC only 7.4 g, 5 min", "result": "smelled better than the left"}, {"measurement": "odor intensity after exercise and 48 hours storage at room temperature", "setting": "[1]; shirt CH1, right pit second treatment: 8 ml NAC solution (600 mg effervescent tablet in 100 ml) then 5.3 ml EGCD-A, 20 min, left pit earlier NIC only, 0 to 5 scale", "result": "2 to 3"}, {"measurement": "odor rating after further exercise, left pit", "setting": "[1]; shirt CH1 left pit, 10 g 2% NAC solution 10 min, 9 g NIC 15 min, rinse, wash (Bright Blue Moon), scale 0 to 5", "result": "2 to 3"}, {"measurement": "odor after exercise relative to left pit", "setting": "[1]; shirt CH1 right pit, 2% NAC solution, washed, odor level about 5 before", "result": "significantly reduced"}, {"measurement": "odor level after washing", "setting": "[1]; shirt CH1 right pit, 2.4 g pH 3.0 NAC solution, 5 min, short cycle with Bright Blue Moon, scale of 0 to 5", "result": "about 0.5"}, {"measurement": "odor after handwash and drying", "setting": "[1]; shirt CH1 right pit, 21 g 2% NAC solution, 5.94 g EGCD-A, 10 min, 7 g NIC, about 10 min", "result": "no odor"}, {"measurement": "odor rating after further exercise, right pit", "setting": "[1]; shirt CH1 right pit, earlier NAC, EGCD-A and NIC treatments, scale 0 to 5", "result": "about 1"}, {"measurement": "odor after washing and air drying", "setting": "[1]; shirt Dec1 right pit, 1.6 g of 1.8% NAC solution (pH about 2), then standard wash with Bright Blue Moon enzymatic detergent", "result": "some odor"}, {"measurement": "odor of treated pits after wash", "setting": "[1]; shirts AA, AB, AC, 2.1% NAC solution, about 10 min, then NIC (some pits also E2 or LPS1), 15 min, wash with Bright Blue Moon, versus untreated pits or pits without NAC", "result": "smelled better than before"}, {"measurement": "odor after washing", "setting": "[1]; shirts RL, BL, WL right pits, 2.1% NAC solution 12-13.5 g, then EGCD-B or EGCD-2, then NIC (RL, WL), owner's report", "result": "significantly reduced odor"}, {"measurement": "fluorescent zones after wash", "setting": "[2]; shirt BD1, right pit 2.1% NAC (pH 4) then E3C", "result": "slightly decreased in intensity"}, {"measurement": "intensity of fluorescent zones after wash", "setting": "[2]; shirt BD1, right pit 5.2 g 2.1% NAC pH 6.4 then 3.0 g E3D, left pit water then 3.28 g E3D, about 33°C 2 hours, full cycle 40°C Tide", "result": "may have decreased slightly"}, {"measurement": "fluorescence after CF1 staining, left pit", "setting": "[2]; shirt CH1, 2.1% NAC then E3, wash, Lightfe UV301D 365 nm", "result": "perhaps weaker than initially seen"}, {"measurement": "fluorescence after wash", "setting": "[2]; shirt RA1, left pit 4.54 g 2.1% NAC then 10.7 g E3D, right pit 9.2 g E3D only, about 33°C 2 hours, short cycle 30°C Purex", "result": "significant reduction in fluorescence"}, {"measurement": "residual fluorescence, lower versus upper half of left pit", "setting": "[2]; shirt RA1, lower half 2.15% NAC (pH 6.4 and 9.17), upper half water, both CellulaseC 5.6 g and AmylaseA 1.94 g, about 28°C 30 min", "result": "declined more strongly"}, {"measurement": "darkened regions after wash", "setting": "[3]", "result": "perhaps slightly lighter"}]}
{"smiles": "O=C(O)CC(O)(CC(=O)O)C(=O)O", "note": "[sodium citrate]", "values": [{"measurement": "fluorescence of previously treated pits", "setting": "[2]; shirt RA1, 12% sodium citrate solution 7 g then 1.72 g E3D, about 30°C 3 hours, Lemon Brite", "result": "only very slight improvement at best"}, {"measurement": "reddish fluorescent zone", "setting": "[2]; shirt RA1, 12% sodium citrate solution then E3D", "result": "significant reduction"}, {"measurement": "fluorescence of previously untreated spot", "setting": "[2]; shirt RA1, 12% sodium citrate solution then E3D, about 30°C 3 hours, also slightly smaller in extent", "result": "significantly reduced in brightness"}, {"measurement": "fluorescence of two zones of right pit", "setting": "[2]; shirt RA1, each about 2.3 g 12% citrate solution, lower zone also 1.86 g E3D, 40-45°C two hours", "result": "only little reduction in fluorescence"}]}
